ChEMBL document CHEMBL3885881, “DrugMatrix”

Species: Rattus norvegicus
Test: DrugMatrix - Regimen: Daily Repeat
Assay type: toxicity, organism-based, Sprague-Dawley
Set-up: regimen Daily Repeat, gender Male, age 6-8 weeks
Settings: in vivo, 0 mg/kg, dose level Control; for ABSOLUTE BASOPHIL / ABSOLUTE EOSINOPHIL / ABSOLUTE LYMPHOCYTE / ABSOLUTE MONOCYTE / ABSOLUTE SEGMENTED NEUTROPHIL / BASOPHIL / EOSINOPHIL / ERYTHROCYTE COUNT / HEMATOCRIT / HEMOGLOBIN / LEUKOCYTE COUNT / LYMPHOCYTE / MEAN CORPUSCULAR HEMOGLOBIN / MEAN CORPUSCULAR VOLUME / MONOCYTE / NEUTROPHIL / NUCLEATED RED BLOOD CELLS / PLATELET COUNT: tissue Blood; for ALANINE AMINOTRANSFERASE / ALBUMIN / ALKALINE PHOSPHATASE / ASPARTATE AMINOTRANSFERASE / BLOOD UREA NITROGEN / CARBON DIOXIDE / CHLORIDE / CHOLESTEROL / CREATINE PHOSPHOKINASE / CREATININE / GLUCOSE / LACTATE DEHYDROGENASE / LIPASE / PHOSPHORUS / POTASSIUM / SODIUM / TOTAL BILIRUBIN / TOTAL PROTEIN / URIC ACID: tissue Plasma
[1] = po, 72 h, route oral GAVAGE, time 3 day, vehicle 100 % WATER
[2] = po, 120 h, route oral GAVAGE, time 5 day, vehicle 100 % WATER
[3] = sc, 72 h, route subcutaneous, time 3 day, […]
[4] = sc, 120 h, route subcutaneous, time 5 day, […]

CC(C)(C)CC(C)(C)c1ccc(OCCOCC[N+](C)(C)Cc2ccccc2)cc1.[Cl-] [BENZETHONIUM CHLORIDE]
ABSOLUTE BASOPHIL [1]: 0 CELLS/uL | ABSOLUTE EOSINOPHIL [1]: 20.17 CELLS/uL | ABSOLUTE LYMPHOCYTE [1]: 12371.67 CELLS/uL | ABSOLUTE MONOCYTE [1]: 166 CELLS/uL | ABSOLUTE SEGMENTED NEUTROPHIL [1]: 1292.17 CELLS/uL | BASOPHIL [1]: 0% | EOSINOPHIL [1]: 0.17% | ERYTHROCYTE COUNT [1]: 5.46 x10E6/uL | HEMATOCRIT [1]: 34.38% | HEMOGLOBIN [1]: 13.32 G/DL | LEUKOCYTE COUNT [1]: 13.85 x10E3/uL | LYMPHOCYTE [1]: 88.5% | MEAN CORPUSCULAR HEMOGLOBIN [1]: 24.42 pg | MEAN CORPUSCULAR VOLUME [1]: 63.07 fL | MONOCYTE [1]: 1.17% | NEUTROPHIL [1]: 10.17% | NUCLEATED RED BLOOD CELLS [1]: 0.17 /100WBC | PLATELET COUNT [1]: 1193.5 x10E3/uL | ALANINE AMINOTRANSFERASE [1]: 54.5 u/L | ALBUMIN [1]: 4.02 G/DL | ALKALINE PHOSPHATASE [1]: 346.5 u/L | ASPARTATE AMINOTRANSFERASE [1]: 103.17 u/L | BLOOD UREA NITROGEN [1]: 16.5 mg/dL | CARBON DIOXIDE [1]: 29.83 mmol/L | CHLORIDE [1]: 99.5 MEQ/L | CHOLESTEROL [1]: 72.5 mg/dL | CREATINE PHOSPHOKINASE [1]: 532.5 u/L | CREATININE [1]: 0.18 mg/dL | GLUCOSE [1]: 168.5 mg/dL | LACTATE DEHYDROGENASE [1]: 536.5 u/L | LIPASE [1]: 11.17 u/L | PHOSPHORUS [1]: 11.48 mg/dL | POTASSIUM [1]: 5.95 MEQ/L | SODIUM [1]: 140.5 MEQ/L | TOTAL BILIRUBIN [1]: 0.18 mg/dL | TOTAL PROTEIN [1]: 5.77 G/DL | URIC ACID [1]: 1.42 mg/dL | ABSOLUTE BASOPHIL [2]: 0 CELLS/uL | ABSOLUTE EOSINOPHIL [2]: 22.83 CELLS/uL | ABSOLUTE LYMPHOCYTE [2]: 12202.83 CELLS/uL | ABSOLUTE MONOCYTE [2]: 158 CELLS/uL | ABSOLUTE SEGMENTED NEUTROPHIL [2]: 1283 CELLS/uL | BASOPHIL [2]: 0% | EOSINOPHIL [2]: 0.17% | ERYTHROCYTE COUNT [2]: 5.88 x10E6/uL | HEMATOCRIT [2]: 36.62% | HEMOGLOBIN [2]: 14.07 G/DL | LEUKOCYTE COUNT [2]: 13.67 x10E3/uL | LYMPHOCYTE [2]: 89.5% | MEAN CORPUSCULAR HEMOGLOBIN [2]: 23.95 pg | MEAN CORPUSCULAR VOLUME [2]: 62.28 fL | MONOCYTE [2]: 1.17% | NEUTROPHIL [2]: 9.17% | NUCLEATED RED BLOOD CELLS [2]: 0.17 /100WBC | PLATELET COUNT [2]: 1198 x10E3/uL | ALANINE AMINOTRANSFERASE [2]: 51 u/L | ALBUMIN [2]: 4.3 G/DL | ALKALINE PHOSPHATASE [2]: 343 u/L | ASPARTATE AMINOTRANSFERASE [2]: 89.83 u/L | BLOOD UREA NITROGEN [2]: 17.67 mg/dL | CARBON DIOXIDE [2]: 27.17 mmol/L | CHLORIDE [2]: 98.33 MEQ/L | CHOLESTEROL [2]: 82.5 mg/dL | CREATINE PHOSPHOKINASE [2]: 533.33 u/L | CREATININE [2]: 0.18 mg/dL | GLUCOSE [2]: 152.67 mg/dL | LACTATE DEHYDROGENASE [2]: 220.33 u/L | LIPASE [2]: 11.5 u/L | PHOSPHORUS [2]: 11.25 mg/dL | POTASSIUM [2]: 6.29 MEQ/L | SODIUM [2]: 140.53 MEQ/L | TOTAL BILIRUBIN [2]: 0.22 mg/dL | TOTAL PROTEIN [2]: 6.12 G/DL | URIC ACID [2]: 1.42 mg/dL | ABSOLUTE BASOPHIL [3]: 0 CELLS/uL | ABSOLUTE EOSINOPHIL [3]: 92.33 CELLS/uL | ABSOLUTE LYMPHOCYTE [3]: 12247.5 CELLS/uL | ABSOLUTE MONOCYTE [3]: 389.67 CELLS/uL | ABSOLUTE SEGMENTED NEUTROPHIL [3]: 1320.5 CELLS/uL | BASOPHIL [3]: 0% | EOSINOPHIL [3]: 0.67% | ERYTHROCYTE COUNT [3]: 5.45 x10E6/uL | HEMATOCRIT [3]: 34.85% | HEMOGLOBIN [3]: 12.97 G/DL | LEUKOCYTE COUNT [3]: 14.05 x10E3/uL | LYMPHOCYTE [3]: 87.33% | MEAN CORPUSCULAR HEMOGLOBIN [3]: 23.78 pg | MEAN CORPUSCULAR VOLUME [3]: 63.93 fL | MONOCYTE [3]: 2.67% | NEUTROPHIL [3]: 9.33% | NUCLEATED RED BLOOD CELLS [3]: 0 /100WBC | PLATELET COUNT [3]: 1174 x10E3/uL | ALANINE AMINOTRANSFERASE [3]: 48.83 u/L | ALBUMIN [3]: 4.23 G/DL | ALKALINE PHOSPHATASE [3]: 351.5 u/L | ASPARTATE AMINOTRANSFERASE [3]: 90 u/L | BLOOD UREA NITROGEN [3]: 15.33 mg/dL | CARBON DIOXIDE [3]: 23 mmol/L | CHLORIDE [3]: 103.5 MEQ/L | CHOLESTEROL [3]: 70.5 mg/dL | CREATINE PHOSPHOKINASE [3]: 651.83 u/L | CREATININE [3]: 0.22 mg/dL | GLUCOSE [3]: 180.67 mg/dL | LACTATE DEHYDROGENASE [3]: 165 u/L | LIPASE [3]: 9.33 u/L | PHOSPHORUS [3]: 12.03 mg/dL | POTASSIUM [3]: 6.17 MEQ/L | SODIUM [3]: 142.62 MEQ/L | TOTAL BILIRUBIN [3]: 0.2 mg/dL | TOTAL PROTEIN [3]: 5.73 G/DL | URIC ACID [3]: 1.77 mg/dL | ABSOLUTE BASOPHIL [4]: 0 CELLS/uL | ABSOLUTE EOSINOPHIL [4]: 0 CELLS/uL | ABSOLUTE LYMPHOCYTE [4]: 12736.67 CELLS/uL | ABSOLUTE MONOCYTE [4]: 253.5 CELLS/uL | ABSOLUTE SEGMENTED NEUTROPHIL [4]: 1193.17 CELLS/uL | BASOPHIL [4]: 0% | EOSINOPHIL [4]: 0% | ERYTHROCYTE COUNT [4]: 5.72 x10E6/uL | HEMATOCRIT [4]: 36.05% | HEMOGLOBIN [4]: 13.62 G/DL | LEUKOCYTE COUNT [4]: 14.18 x10E3/uL | LYMPHOCYTE [4]: 89.33% | MEAN CORPUSCULAR HEMOGLOBIN [4]: 23.83 pg | MEAN CORPUSCULAR VOLUME [4]: 63.05 fL | MONOCYTE [4]: 1.83% | NEUTROPHIL [4]: 8.83% | NUCLEATED RED BLOOD CELLS [4]: 0 /100WBC | PLATELET COUNT [4]: 1322.17 x10E3/uL | ALANINE AMINOTRANSFERASE [4]: 48.83 u/L | ALBUMIN [4]: 4.27 G/DL | ALKALINE PHOSPHATASE [4]: 295.17 u/L | ASPARTATE AMINOTRANSFERASE [4]: 75.83 u/L | BLOOD UREA NITROGEN [4]: 15.5 mg/dL | CARBON DIOXIDE [4]: 30.5 mmol/L | CHLORIDE [4]: 102.33 MEQ/L | CHOLESTEROL [4]: 76.17 mg/dL | CREATINE PHOSPHOKINASE [4]: 205.5 u/L | CREATININE [4]: 0.2 mg/dL | GLUCOSE [4]: 149.67 mg/dL | LACTATE DEHYDROGENASE [4]: 124.5 u/L | LIPASE [4]: 10 u/L | PHOSPHORUS [4]: 10.93 mg/dL | POTASSIUM [4]: 6.59 MEQ/L | SODIUM [4]: 143.1 MEQ/L | TOTAL BILIRUBIN [4]: 0.2 mg/dL | TOTAL PROTEIN [4]: 6.05 G/DL | URIC ACID [4]: 1.45 mg/dL
